The results in this text go back to patent publication US9278915B2, “Agonists of GPR40” (CONNEXIOS LIFE SCIENCES PVT LTD, priority 2010, dated 2016).

The target of the assay is T1, hGPR40 (Homo sapiens, UniProt O14842).
T1 construct: expressed in transfected cells
The experiment in a line: Calcium flux assay to detect GPR40 activation. It counts as cell-based. The conditions noted are these: CHO-K cells stably expressing hGPR40; Fluo-4 NW; read for 4 min at 5 s intervals. In a few lines: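 CHO-K cells stably expressing hGPR40 were cultured 24 h at 37 °C and loaded with Fluo-4 NW for 30 min at 37 °C plus 30 min at RT. Compounds diluted in HEPES buffer were added, and calcium fluorescence was recorded for 4 min at 5 s intervals.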

T1 sequence (O14842 whole entry): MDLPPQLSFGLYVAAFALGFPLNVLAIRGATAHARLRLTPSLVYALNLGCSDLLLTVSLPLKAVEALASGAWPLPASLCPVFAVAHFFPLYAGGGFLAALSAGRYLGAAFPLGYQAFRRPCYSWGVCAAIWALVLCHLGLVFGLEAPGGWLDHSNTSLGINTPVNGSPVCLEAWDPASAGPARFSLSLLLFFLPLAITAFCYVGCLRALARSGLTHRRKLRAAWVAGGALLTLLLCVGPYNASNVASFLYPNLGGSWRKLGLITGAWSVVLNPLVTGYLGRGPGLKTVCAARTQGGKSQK

For the compound `CO/N=C(\COc1ccc(COc2ccc(CCC(=O)O)c(-c3cc(C)on3)c2)cc1)c1ccccc1` [Compound 65, 3-{4-[(4-{[(2Z)-2-(Methoxyimino)-2-phenylethyl]oxy}benzyl)oxy]-2-(5-methyl-1,2-oxazol-3-yl)phenyl}propanoic acid], the EC50 is more than 0.1 µM. With `CO/N=C(\COc1ccc(COc2ccc(CCC(=O)O)cc2)cc1)c1ccccc1` [Compound 7, 3-{4-[(4-{[(2Z)-2-(Methoxyimino)-2-phenylethyl]oxy}benzyl)oxy]phenyl}propanoic acid] the figure was less than 0.01 µM; with `CO/N=C(\COc1ccc(COc2ccc(CCC(=O)O)c(OC)c2)cc1)c1ccccc1` [Compound 37, 3-{2-Methoxy-4-[(4-{[(2Z)-2-(methoxyimino)-2-phenylethyl]oxy}benzyl)oxy]phenyl}propanoic acid], more than 0.1 µM. With `C=CCO/N=C(\COc1ccc(COc2ccc(CCC(=O)O)cc2)cc1)c1ccccc1` [Compound 110, 3-(4-{[4-({(2E,2Z)-2-Phenyl-2-[(prop-2-en-1-yloxy)imino]ethyl}oxy)benzyl]oxy}phenyl)propanoic acid] the figure was less than 0.01 µM; with `CO/N=C(\COc1ccc(COc2ccc(C(C#N)CC(=O)O)cc2)cc1)c1cccc(F)c1` (stereo not drawn) [Compound 35, 3-Cyano-3-{4-[(4-{[(2Z)-2-(3-fluorophenyl)-2-(methoxyimino)ethyl]oxy}benzyl)oxy]phenyl}propanoic acid], 0.01 to 0.1 µM. The result for `CO/N=C(\COc1ccc(CNc2ccc(-c3onc(C)c3CCC(=O)O)cc2)cc1)c1ccc(C#N)cc1` [Compound 72, 3-(5-{4-[(4-{[(2E,2Z)-2-(4-Cyanophenyl)-2-(methoxyimino)ethyl]oxy}benzyl)amino]phenyl}-3-methyl-1,2-oxazol-4-yl)propanoic acid] reads more than 0.1 µM. Take `CO/N=C(\COc1ccc(COc2ccc(CCC(=O)O)c(F)c2)cc1)c1ccc(C#N)cc1` [Compound 39]: the EC50 is less than 0.01 µM. With `CO/N=C(\COc1ccc(COc2ccc(/C(CC(=O)O)=N\Oc3ccccc3)cc2)cc1)c1ccccc1` [Compound 123, (3E,3Z)-3-{4-[(4-{[(2Z)-2-(Methoxyimino)-2-phenylethyl]oxy}benzyl)oxy]phenyl}-3-(phenoxyimino) propanoic acid] the figure was more than 0.1 µM; with `CO/N=C(/COc1ccc(COc2ccc(CCC(=O)O)cc2)cc1)c1ccc(C#N)cc1` (racemic) [Compound 28, 3-{4-[(4-{[(2E,2Z)-2-(4-Cyanophenyl)-2-(methoxyimino)ethyl]oxy}benzyl)oxy]phenyl}propanoic acid], 0.01 to 0.1 µM.

For orientation: EC50 means the concentration that produces a half-maximal response.
